Results published in patent publication US6310247A, “7-aryl-6(Z)-heptatrienoic acid retinamides” (Hoffmann-LA Roche Inc., priority 1999, dated 2001).
Read-outs that look alike come from different tables or passages of the source.

Tested on: MDA-435 cells
Assay: Apoptosis: cell death detection by ELISA, MDA-435
Assay type: cell-based, human
Conditions: for fold induction at 1 µM / fold induction at 3.3 µM / fold induction at 10 µM: Homo sapiens, read-out: Fold induction of apoptosis compared to no drug control
Protocol: ER- breast carcinoma, human (MDA-435) obtained from Dr. Janet Price, MDA Cancer Center, Houston, Tex., were grown in Gibco's RPMI 1640 media supplemented with sodium pyruvate, 10% FBS and 13 ng/mL gentamicin. Cells were incubated at 37° C., 4.5% CO2 and 95.5% humidified air.
2. Apoptosis: Cell death detection by ELISA:
Compounds of formula 1 were tested for the ability to cause apoptosis as follows:
Cells and media were collected, cells were pelleted, resuspended in 100 μl lysis buffer (50 mM Tris-Cl (pH=8.0), 20 mM EDTA, 1% NP-40e) and incubated 30 minutes at 4° C. to lyse. Cell debris was spun down and an aliquot (30 μl) of the […] was removed for protein determination and stored at -20° C. An additional 280 μl of lysis buffer, was added, mixed thoroughly and spun down at 14,000 RPM for 10 minutes at 4° C. An aliquot was removed (180 μl) and the sample was stored at -20° C. until testing.
A commercially available apoptosis detection kit, obtained from Boehringer Mannheim (Cat. No. 1544-674), was used as per the directions provided with the kit (Cell Death Detection ELISA). However, the protocol was modified in that a 1:40 to 1:100 dilution of sample was prepared, rather than the recommended 1:10 dilution, due to the increase in cell number used to prepare the sample extract and the subsequent increase in ELISA reactivity. The assay measures apoptosis by quantifying the amount of nucleosomal fragmentation from the extracts of cells treated with the test compounds (samples). These nucleosomal fragments, generated by the activation of endonucleases, are a known downstream effector of apoptosis. Antihistone antibodies are used to fix any nucleosomal fragments in the sample to the well of the microtiter plates. The sample is then incubated with anti-DNA antibodies conjugated to peroxidase and subsequently incubated with the peroxidase substrate, ABTS. The resulting colorimetric change is measured spectrophotometrically at 405/490nm.
The total protein content of each sample was determined for the purpose of normalizing the ELISA values to amount of sample loaded. Microplate assay protocol described in the instruction manual, for (Biorad DC Assay, Cat.#500-0116) section 5.2. The protein concentrations were calculated based upon a linear regression curve.
d) ELISA assay calculations
Relative ELISA O.D. readings are determined by subtracting the ELISA plate background O.D. value. No drug control O.D. value (lysis buffer only) was subtracted from sample O.D. value. A correction coefficient (CC), based on the sample protein concentration compared to no drug control, was determined to correct the sample O.D. following subtraction of the background O.D. (BCS O.D.). The fold increase over no drug control is calculated and normalized to the total protein concentration of the samples by multiplying against the correction coefficient.
To determine the fold increase in ELISA O.D., obtain the following O.D. measurements:
ELISA plate background--lysis buffer only (EPB);
no drug treated control--cell sample treated with DMSO (NDT);
drug treated sample--cell sample treated with a compound of formula 1 (DT) Subtract EPB from NDT (NDT-EPB) and DT (DT-EPB). The fold increase of the treated over the control is then (DT-EPB)/(NDT-EPB).
To determine the total protein concentration of the samples, obtain the total protein concentration in mg/ul calculated using standard linear regression formula (y=mx+b) based on BSA standards. B=ELISA background. Protein concentration (PC)(mg/ml)=(sample absorbance-b)/x.
Correction coefficient (cc) is (NDT)(PC)/(DT)(PC).
Determine fold increase of ELISA (FT) normalized to total PC:
nDT is DT×cc (which is DT O.D. normalized to PC)
nNDT is NDT×cc (which is NDT O.D. normalized to PC)
FI normalized to PC is nDT/nNDT.

Question: What does the source list for `C/C(=C/C=C/C(C)=C/C(=O)Nc1ccc(O)cc1)c1cc(C(F)(F)F)cc(C(F)(F)F)c1` [N-(4-hydroxyphenyl)-(2E,4E,6Z)-7-[3,5-bis(trifluoromethyl)phenyl]-3,7-dimethyl-2,4,6-heptatrienamide]?
Answer: fold induction at 1 µM (MDA435, 24 h, 24 hrs): 3; fold induction at 3.3 µM (MDA435, 24 h, 24 hrs): 6; fold induction at 10 µM (MDA435, 24 h, 24 hrs): 6; fold induction at 1 µM (MDA435, 48 h, 48 hrs): 3; fold induction at 3.3 µM (MDA435, 48 h, 48 hrs): 10; fold induction at 10 µM (MDA435, 48 h, 48 hrs): 16; fold induction at 1 µM (MDA435, 72 h, 72 hrs): 4; fold induction at 3.3 µM (MDA435, 72 h, 72 hrs): 12; fold induction at 10 µM (MDA435, 72 h, 72 hrs): 34; Induction of apoptosis (in words) (after 24 hours): induces significant apoptosis
